Experimental data from paper PMC7343212, “Lactoferrin-Hexon Interactions Mediate CAR-Independent Adenovirus Infection of Human Respiratory Cells” (Journal of Virology, 2020).
Bridges are numbered along the chain shown (N, C = ends). Where no end group is shown, it is not given here.

Legend:
HAdV-C5 hexon = target: T1, HAdV-C5 hexon (Human adenovirus C serotype 5, UniProt P04133); test: Surface plasmon resonance, HAdV-C5 hexon immobilized; format: binding; details: SPR Biacore T200, HAdV-C5 hexon on CM5 chip, analyte hLfcin1-49, 2-fold series 8 nM to 2 μM, HBS-EP+ pH 7.4, 25°C; average from three independent measurements
T1 construct: the top phase containing soluble viral components was recovered, and HAdV hexons were purified using monoclonal hexon antibodies; made in house; host or cells: A549 cells infected with wild-type HAdV-C5 (strain Ad75)
Experimental: Ten flasks of 70% confluent A549 cells were infected with HAdV-C5, HAdV-A31, or HAdV-B35. After initial inoculation, unbound virus was washed away, and approximately 30 ml of fresh medium (DMEM plus 20 mM HEPES [N-2-hydroxyethylpiperazine-NN-2-ethanesulfonic acid] plus 5% FBS) was added. At 48 h after infection, the cells were harvested by scraping into a small volume of DMEM, centrifuged, and resuspended in 6 ml of DMEM. The collected cells were lysed and the sample cleared by centrifugation. Virus was separated from soluble viral components by a CsCl gradient, as described previously ([59]). After ultracentrifugation, the top phase containing soluble viral components was recovered, and HAdV hexons were purified using monoclonal hexon antibodies (MAB8052) covalently attached to magnetic protein A/G beads (Pierce) using dimethyl pimelimidate (DMP) according to the manufacturer’s instructions. Bound hexons were washed three times using PBS to remove protein bound unspecifically, followed by elution in 50 μl of 200 mM glycine buffer at pH 2.5.
CM5 sensor chips, an amine-coupling kit, and HBS-EP+ buffer (10 mM HEPES, 150 mM NaCl, 3 mM EDTA, and 0.005% [vol/vol] surfactant P20 [pH 7.4]) were all purchased from GE Healthcare. All surface plasmon resonance (SPR) experiments were performed at 25°C in HBS-EP+ running buffer with adenovirus hexons immobilized on the sensor surface. […]

[1] = test system: human respiratory epithelial A549 cells (HAdV-C5_GFP); test: HAdV-C5_GFP transduction of A549 cells; format: cell-based; details: at this concentration (2 μM), Fig. 1D
Source text: For all transduction experiments, GFP-expressing vectors were used. The HAdV_GFP vector was purchased from Vector Development Laboratory. All mutated HAdV-C5 vectors were generated in the laboratory of A. Plückthun at the University of Zürich using the AdEasy system (Agilent) to contain an internal ribosome entry site (IRES)-luciferase (Luc)-GFP cassette for detection of transduction. To investigate the role of integrins in transduction, HAdV-C5-IRES-GFP with an intact RGD loop in the penton base protein (-DMNDHAIRGDTFATRAE-) and HAdV-C5-ΔRGD-IRES-GFP (-DMNDTSRAEEKRAE-), known not to bind integrins ([40]), were generated. To determine the binding site for hLF/hLfcin on the hexon protein, hexon-mutated vectors were produced with HVR-1 of HAdV-C5 ([43]) replaced with the corresponding sequence of HAdV-A31, as well as a HAdV-C5 vector mutated in HVR-7 ([44]).
For experiments in A549 cells, 15,000 cells were seeded into a black 96-well plate with a transparent bottom. For experiments with CHO-K1 cells, 20,000 cells were seeded. After 24 h, HAdV-C5 vectors was complexed with 2 μM Lfcin or with ∼12 μM (1 mg/ml) of LF and, after 60 min, added to the cells on ice. The blocking of CAR using soluble HAdV-C5 fiber knob was performed using 10 μg/ml of recombinant knob. After another 60 min, unbound complex was washed away using Dulbecco’s modified Eagle’s medium (DMEM), followed by final addition of fresh medium. After 44 h, the cells were fixed using 4% paraformaldehyde (PFA) for 10 min, and GFP expression was imaged using a Trophos system (Luminy Biotech Entreprises). For the hexon chimeric viruses, transduction was instead quantified by measuring the luciferase activity at 44 h postinfection using a Pierce luciferase glow assay kit.

[2] = test system: A549 cells (HAdV-C5 virions); test: 35S-labeled HAdV-C5 virion binding to A549 cells; format: cell-based, Human; details: at this concentration (2 μM), Fig. 1C
Experimental: A549 cells were detached using phosphate-buffered saline (PBS) plus 0.05% EDTA with slow rocking at 37°C. Once detached, the cells were centrifuged at 1,500 × g for 5 min, resuspended in growth medium to about 2 × 10^6 cells/ml, and allowed to recover at 37°C, slowly rocking to keep the cells in suspension. While recovering, the HAdV-Lfcin complex was set up. Lfcin (2 μM), or an equivalent volume of PBS, was mixed with ^35S-labeled HAdV (15,000 particles/cell) in medium and left on ice at 4°C for 60 min. After 60 min of recovery, the cells were counted, and 150,000 viable cells were added to each well of a 96-V-shaped-well plate and centrifuged for 5 min at 1,500 × g. Once pelleted, the cells were resuspended in the HAdV-Lfcin solution or in HAdV-PBS solution and incubated on ice for 60 min at 4°C. After 60 min, the cells were pelleted and washed once in medium and once in PBS before the addition of scintillation fluid and quantification using a Wallac 1450 Microbeta counter (Trilux).

T1 sequence (P04133 2-952 limits assumed): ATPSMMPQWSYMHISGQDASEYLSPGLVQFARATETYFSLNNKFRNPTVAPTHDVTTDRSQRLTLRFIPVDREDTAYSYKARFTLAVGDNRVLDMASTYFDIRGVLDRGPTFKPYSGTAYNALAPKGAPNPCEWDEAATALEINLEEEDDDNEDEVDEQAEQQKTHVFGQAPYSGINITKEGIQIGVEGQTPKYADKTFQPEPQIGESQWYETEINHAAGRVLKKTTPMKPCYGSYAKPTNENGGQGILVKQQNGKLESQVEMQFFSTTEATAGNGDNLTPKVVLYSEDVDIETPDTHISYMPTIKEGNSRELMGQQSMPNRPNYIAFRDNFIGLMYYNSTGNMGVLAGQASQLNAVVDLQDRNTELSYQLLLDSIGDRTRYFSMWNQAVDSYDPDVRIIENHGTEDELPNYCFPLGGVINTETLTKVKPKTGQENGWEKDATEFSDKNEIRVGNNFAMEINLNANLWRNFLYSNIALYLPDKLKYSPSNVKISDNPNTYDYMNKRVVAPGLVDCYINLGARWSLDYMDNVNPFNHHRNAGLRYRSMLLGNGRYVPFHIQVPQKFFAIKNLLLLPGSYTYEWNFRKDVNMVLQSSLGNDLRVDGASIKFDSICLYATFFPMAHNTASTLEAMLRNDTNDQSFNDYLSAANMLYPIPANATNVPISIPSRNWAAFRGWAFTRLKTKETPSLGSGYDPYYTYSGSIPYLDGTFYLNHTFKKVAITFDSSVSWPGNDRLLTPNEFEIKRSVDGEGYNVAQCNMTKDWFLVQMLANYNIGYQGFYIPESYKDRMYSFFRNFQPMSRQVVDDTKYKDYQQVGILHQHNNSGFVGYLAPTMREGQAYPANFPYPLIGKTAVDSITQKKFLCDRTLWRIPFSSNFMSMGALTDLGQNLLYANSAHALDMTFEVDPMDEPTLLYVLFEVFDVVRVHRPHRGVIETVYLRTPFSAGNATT

Row | Substance | Kd (HAdV-C5 hexon) [nM] | effect on HAdV-C5 transduction of A549 cells (in words) [1] | effect on HAdV-C5 binding to A549 cells (in words) [2]
1 | GRRRRSVQWCAVSQPEATKCFQWQRNMRKVRGPPVSCIKRDSPIQCIQA (disulfide 10-46, 20-37) [hLfcin1-49, human lactoferricin] | 730 ± 206 | – | –
2 | bLfcin17-31: bovine lactoferricin 17-31, standard solid-phase peptide synthesis (FKCRRWQWRMKKLGA; UniProt P24627 36-50, looked up, fragment) [reference compound] | – | no or little effect | no or little effect
3 | bLfcin17-42: bovine lactoferricin 17-42, purchased from the Center for Food Technology (FKCRRWQWRMKKLGAPSITCVRRAFA; ends and bridges not checked; cysteine pairing not given here; UniProt P24627 36-61, looked up, fragment) [reference compound] | – | no or little effect | no or little effect
4 | hLfcin18-42: human lactoferricin 18-42, solid-phase synthesis, cyclized in a two-step approach (KCFQWQRNMRKVRGPPVSCIKRDSP; not fully specified (bridges); also: cyclized in a two-step approach, kind and places not given here; UniProt P02788 37-61, looked up, fragment) | – | no or little effect | no or little effect
